Reference: publication PMC10883907, “Phage-display reveals interaction of lipocalin allergen Can f 1 with a peptide resembling the antigen binding region of a human γδT-cell receptor” (Biological Chemistry, 2020)

Biological target: Can f 1 (Canis lupus, UniProt O18873)
Test: fluorescence titration (excitation […] nm, emission […] nm)
Assay type: binding

Sequence of Can f 1 (O18873 19-174): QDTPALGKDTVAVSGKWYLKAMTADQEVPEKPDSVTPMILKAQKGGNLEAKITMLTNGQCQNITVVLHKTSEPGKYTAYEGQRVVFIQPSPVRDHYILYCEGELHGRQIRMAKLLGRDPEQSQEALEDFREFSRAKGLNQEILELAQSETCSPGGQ

Kd: 2100 nM
Structure (SMILES): O=S(=O)(O)c1cccc2cccc(Nc3ccccc3)c12 [ANS, 8-anilinonaphthalene-1-sulfonic acid]
